The test system of assay [1] is Normal Balb/C female mice. The assay can be described thus: Hematopoiesis in normal mice. It is filed as in vivo, mouse. To be noted: for number of myelocytes (femoral bone marrow): 2.6 μmoles/mouse daily 4 days; for spleen weights: 2.5 Moles/mouse/day i.p. The method, then:
Normal, otherwise untreated, female Balb/C mice weighing approximately 20 grams each received a total of 4 or 9 0.4 ml intraperitoneal injections (one per day) of either Tween-80 (0.2%) (controls), palmitoylguanosine ([…]), or palmitoyldeoxyinosine ([…]). Twenty-four hours after the 4th or 9th treatment, groups of 5 or 6 animals from each of the 3 groups were bled and then sacrificed by cervical dislocation. Spleens were removed and weighed, and complete blood cell counts performed.
Normal Balb/C female mice weighing approximately 20 grams each were given a daily 0.4 ml i.p. injection of either physiological saline (controls), palmitoylguanosine (2.6 μmoles/mouse), palmitoyldeoxyguanosine (2.6 μmoles/mouse), monopalmitoylguanosine 2′,3′-acyclic dialcohol (2.6 μmoles/mouse), and palmitoyl-8-bromoguanosine (2.6 μmoles/mouse) for 4 days. On the fifth day all 3 animals in each of the 5 groups were bled and then sacrificed by cervical dislocation. Spleens were removed and weighed, and complete blood cell counts performed. Femoral bone marrow from each mouse was collected and a differential cell count performed on marrow smears.

For assay [2], the system named is IL-3-dependent bone marrow cells. The assay can be described thus: Apoptosis of IL-3-dependent bone marrow cells deprived of IL-3 (trypan blue exclusion). It is filed as cell-based, mouse.
Protocol: Bone marrow cells were obtained by flushing the femurs of three male B6D2F1 mice. The cells were plated at 5.0×10^5/ml in MEM plus 10% fetal calf serum and 25 Units/ml of recombinant IL-3 for 24-48 hours. Non-adherent cells were then separated from adherent cells and maintained for an additional twelve days. IL-3 washed from cells, and cells were plated in MEM plus 10% fetal calf serum in the presence or absence of IL-3 and with or without the addition of palmitoyldeoxyguanosine (10 micrograms per milliliter) or deoxyguanosine (10 micrograms per milliliter). Cells were counted using the trypan blue exclusion method, and the percent of dead cells (trypan blue positive) was determined at 24, 40, 60 and 84 hours following the wash.
Assay [3] has as its system Balb/C female mice. The assay can be described thus: Hematopoietic recovery after cyclophosphamide in mice (spleen weight, blood cell counts). It is filed as in vivo, mouse. As to conditions: for Neutrophils / total leukocytes: Ex 48: day 7 after CP, 2.5 μmoles/mouse; for spleen weight: Ex 38: day 7 after CP, guanosine 5, acyl derivatives 2.5 μmoles/mouse/day in 0.2% Tween 80 i.p. 6 days, Tween 80 0.2%. The method, then:
Twenty-four hours later and each day thereafter for a total of 6 days, mice were given a 0.4 ml i.p. injection of either physiological saline (controls), guanine (5 μmoles/mouse/day), or guanosine (5 μmoles/mouse/day). On day 7 all 10 mice in each of the three groups were bled, and then sacrificed by cervical dislocation. Spleens were removed and weighed, and complete blood cell counts performed.
Twenty-four hours later and each day thereafter for a total of 6 days, mice were given a 0.4 ml i.p injection of either physiological saline (controls), Tween 80 (0.2%), guanosine (5 μmoles/mouse/day in 0.2% Tween 80), or 2.5 μmoles per mouse per day of one of the following acylated derivatives of guanosine in 0.2% Tween 80: triacetylguanosine, octanoylguanosine, lauroylguanosine, or palmitoylguanosine. On day 7 following CP administration all 10 animals from each of the 7 groups were bled, and then sacrificed by cervical dislocation. Spleens were removed and weighed, and complete blood counts performed.
Twenty-four hours later treatment was begun. Mice were given a 0.4 ml i.p. injection of either physiological saline (controls), Tween 80 (0.2%), or palmitoylguanosine (5 μmoles/mouse/day in 0.2% Tween 80). The timing of the treatments was varied within the groups. The control group was given saline on days 1-6. The mice receiving Tween 80 were treated either on days 1-4, 4-6 or 1-6. Palmitoylguanosine-treated mice were treated either on days 1-2, 1-4, 3-5, 4-6 or 1-6. If a group of mice received no Tween 80 or palmitoylguanosine on a given day, saline was administered by i.p. injection. Thus, there were 9 groups of 9 animals in all. On day 7 following CP administration all of the animals were bled and then sacrificed by cervical dislocation. Spleens were removed and weighed, and complete blood cell counts performed.
Twenty-four hours later and each day thereafter for a total of 6 days, mice were given a 0.4 ml i.p. injection of either physiological saline (controls), Tween 80 (0.5%), or one of three different doses of octanoylguanosine (0.5, 2.5, or 5 μmoles/mouse/day in 0.5% Tween 80). On day 7 following CP administration all 9 animals from each of the […] were bled and then sacrificed by cervical dislocation. Spleens were removed and weighed, and complete blood cell counts performed.
Twenty-four hours later and each day thereafter for a total of 6 days, mice were given a 0.4 ml i.p. injection of either physiological saline (controls), Tween 80 (0.5%), or octanoylguanosine (5.0 μmoles/mouse/day in 0.5% Tween 80). On day 7 following CP administration all 10 animals from each of the 3 groups were bled and then sacrificed by cervical dislocation. Spleens were removed, weighed, and fixed in 10% formalin for later histological examination. Complete blood cell counts were performed on the collected blood.
Twenty-four hours later and each day thereafter for a total of 6 days, mice were given a 0.4 ml i.p. injection of either physiological saline (controls), benzoylguanosine (2.5 μmoles/mouse/day in 0.2% Tween 80), or palmitoylguanosine (2.5 μmoles/mouse/day in 0.2% Tween 80). On days 7 and 10 following CP administration 8 animals from each of the 3 groups were bled and then were sacrificed by cervical dislocation. Spleens were removed and weighed, and complete blood cell counts performed.
Twenty four hours later and each day thereafter for a total of 4 or 6 days, mice were given a 0.4 ml i.p. injection of either physiological saline (controls), palmitoyldeoxyinosine (2.5 μmoles/mouse), or palmitoyl-xanthosine (2.5 μmoles/mouse). On days 5 and 7 following CP administration 6 of the 12 animals in each of the 3 groups were bled and then sacrificed by cervical dislocation. Spleens were removed and weighed, and complete blood cell counts performed.

Assay [4] has as its system Balb/C female mice. The description is as above. It is filed as in vivo, mouse.
The mark [5] stands for this setting: Ex 47: day 7 after CP, 2.5 μmoles/mouse/day.
The mark [6] stands for this setting: Ex 48: day 5 after CP, 2.5 μmoles/mouse.
Setting [7] is: Ex 48: day 7 after CP, 2.5 μmoles/mouse.
[8] abbreviates: Ex 50: day 5 after CP, 2 μmoles/mouse.
Setting [9] is: Ex 45: day 7 after CP, dose-dependent, 0.5-5 μmoles/mouse/day.
Setting [10] is: Ex 46: day 7 after CP, 5.0 μmoles/mouse/day.

`CCCCCCCCCCCCCCCC(=O)OC[C@H]1O[C@@H](n2c(Br)nc3c(=O)[nH]c(N)nc32)[C@H](O)[C@@H]1O` [palmitoyl-8-bromoguanosine]: in assay [1] (Ex 56: fifth day), the “number of myelocytes (femoral bone marrow)” value is reported as “significantly greater”.

As for `Nc1nc2c(ncn2[C@H]2C[C@H](O)[C@@H](CO)O2)c(=O)[nH]1` [dG, deoxyguanosine], the “% Dead Cells” value turned out to be 15.5 ± 0.5% in assay [2] (24 hr after IL-3 wash, PdG or dG 10 micrograms per milliliter without IL-3, +IL3 = with IL-3); 21.5 ± 3.5 % in assay [2] (40 hr after IL-3 wash, 10 micrograms per milliliter); 46.3 ± 10.3% in assay [2] (60 hr after IL-3 wash, 10 micrograms per milliliter); 68.3 ± 6.0% in assay [2] (84 hr after IL-3 wash, 10 micrograms per milliliter).

For the compound `Nc1nc2c(ncn2[C@@H]2O[C@H](COC(=O)c3ccccc3)[C@@H](O)[C@H]2O)c(=O)[nH]1`, the platelet number entry with Balb/C female mice [3] (Ex 47: day 10 after CP, 2.5 μmoles/mouse/day) is listed as “significantly greater”. Moreover, in the assay with Balb/C female mice [4] (setting [5]), the Neutrophils result is given as “significantly elevated” and the spleen weight result is “significantly elevated”. Further, the “total white blood cells” value in the assay on Balb/C female mice [4] (Ex 47: day 7 after CP, 2.5 μmoles/mouse/day in 0.2% Tween 80 i.p. 6 days) is recorded as “significantly elevated”.

For the compound `CCCCCCCCCCCCCCCC(=O)OC[C@H]1O[C@@H](n2cnc3c(=O)[nH]cnc32)C[C@@H]1O`, the spleen weights entry in assay [1] (Ex 44: day 5, 4 injections) is “significantly greater”; in assay [1] (Ex 44: day 10, 9 injections, vs Tween 80), “significantly greater”. Moreover, the neutrophil counts result is “significantly greater” in assay [1] (Ex 44: day 10, 9 injections) and “significantly elevated” in the assay on Balb/C female mice [4] (setting [6]). In addition, the total leukocyte counts result was “significantly greater” in assay [1] (Ex 44: day 10, 9 injections) and “significantly elevated” in the assay with Balb/C female mice [4] (setting [6]). Further, the Neutrophils result in the assay with Balb/C female mice [3] was “significantly increased”. Besides, in the assay with Balb/C female mice [3], the total leukocytes result was “significantly increased”. Moreover, the spleen weight entry is given as “significantly elevated” in the assay on Balb/C female mice [4] (Ex 48: day 5 after CP, 2.5 μmoles/mouse i.p. daily); “significantly increased” with Balb/C female mice [4] (setting [7]); “significantly elevated” in the assay with Balb/C female mice [4] (setting [8]).

Take `CC(=O)OC[C@H]1O[C@@H](n2cnc3c(=O)[nH]c(N)nc32)[C@H](OC(C)=O)[C@@H]1OC(C)=O` [acetylguanosine, triacetylguanosine]: the spleen weight result in the assay on Balb/C female mice [3] is “significantly larger spleens”.

In the case of “monopalmitoylguanosine 2′,3′-acyclic dialcohol”, the “number of myelocytes (femoral bone marrow)” value in assay [1] (Ex 56: fifth day) is “significantly greater”. In addition, the spleen weight entry in assay [1] (Ex 56: fifth day, 2.6 μmoles/mouse i.p. daily 4 days) was “significantly elevated”; with Balb/C female mice [4] (setting [8]), “significantly elevated”.

Take `CCCCCCCCCCCC(=O)OC[C@H]1O[C@@H](n2cnc3c(=O)[nH]c(N)nc32)[C@H](O)[C@@H]1O` [laurolyguanosine, Lauroylguanosine]: the spleen weight entry in the assay with Balb/C female mice [3] was “significantly larger spleens”.

Turning to `CCCCCCCCCCCCCCCC(=O)OC[C@H]1O[C@@H](n2cnc3c(=O)[nH]c(=O)[nH]c32)[C@H](O)[C@@H]1O` [palmitoylxanthosine, Palmitoylxanthosine], in the assay with Balb/C female mice [3], the Neutrophils result is “significantly increased” and the total leukocytes entry is given as “significantly increased”. Moreover, in the assay with Balb/C female mice [4] (setting [7]), the spleen weight entry is recorded as “significantly increased”.

With `CCCCCCCC(=O)OC[C@H]1O[C@@H](n2cnc3c(=O)[nH]c(N)nc32)[C@H](O)[C@@H]1O`, the spleen weight result in the assay on Balb/C female mice [3] is reported as “significantly larger spleens”. Moreover, the “total number of neutrophils” value with Balb/C female mice [3] (setting [9]) is “significantly increased”. For the same compound, the “peripheral white blood cells (WBC)” value in the assay with Balb/C female mice [3] (setting [10]) is “significantly greater”. In the assay on Balb/C female mice [4] (Ex 45: day 7 after CP, 0.5, 2.5 or 5 μmoles/mouse/day in 0.5% Tween 80 i.p. 6 days), the spleen size entry is given as “significantly larger”. Besides, the “total number of leukocytes” value with Balb/C female mice [4] (setting [9]) is on record as “significantly increased”. In the assay with Balb/C female mice [4] (setting [10]), the Neutrophils result is reported as “significantly greater”; the “lymphopoiesis and myelopoiesis in the spleens (histology)” value is on record as “much greater”. Besides, in the assay on Balb/C female mice [4] (Ex 46: day 7 after CP, 5.0 μmoles/mouse/day in 0.5% Tween 80, vs saline or Tween 80), the spleen weights result is listed as “significantly greater”. In addition, in the assay on Balb/C female mice [4] (Ex 58: 50 mg/kg in 0.2% Tween 80 vs same dose in 0.02% Tween 80), the neutrophil counts entry was “significantly higher”. Further, in the assay on Balb/C female mice [4] (Ex 58: day 7 after CP, 50 mg/kg/dose in 0.02% and 0.2% Tween 80, vs saline), the neutrophil counts entry is given as “significantly different from controls”.

These data come from patent publication US7307166B1, “Oxpurine nucleosides and their congeners, and acyl, derivatives thereof, for improvement of hematopoiesis” (Wellstat Therapeutics Corporation, priority 1987, dated 2007).
